Data published in ChEMBL document CHEMBL1148908, “Biscoumarin derivatives from Edgeworthia gardneri that inhibit the lyase activity of DNA polymerase beta” (J Nat Prod, 2004).
The source made the active and inactive calls. The calls are words filed in the database; no cut-off is given here.

Columns and labels:
DNA polymerase beta = DNA polymerase beta (Rattus norvegicus, UniProt P06766); assay: Inhibition of lyase activity of rat DNA polymerase beta after 30 mins
[1] = target: DNA polymerase beta (Rattus norvegicus) (UniProt P06766); assay: Inhibition of rat DNA polymerase beta-mediated DNA polymerization up to 100 ug/mL after 1 hr
A549 [2] = assay: Cytotoxicity against human A549 cells at 6 uM after 48 hrs; type: functional; conditions: A549, 48 h
A549 [3] = assay: Cytotoxicity against human A549 cells at 6 uM after 48 hrs in presence of 0.5 uM blenoxane; type: functional
A549 [4] = assay: Cytotoxicity against human A549 cells at 0.5 uM after 48 hrs; type: functional, cell-based

IC50 (DNA polymerase beta) [µM]	Activity [1]	Compound	inhibition at 6 µM (A549 [2]) [%]	inhibition (INH) (A549 [3]) [%]	inhibition (A549 [4]) [%]
122	inactive	COc1cc2cc(Oc3ccc4ccc(=O)oc4c3)c(=O)oc2cc1O [DAPHNORETIN]	–	–	–
–	inactive	O=c1ccc2ccc(Oc3cc4ccc(O)cc4oc3=O)cc2o1 [EDGEWORIN]	1.6	50.7	–
94.8	inactive	O=c1ccc2ccc(Oc3cc4cc(O)c(O)cc4oc3=O)cc2o1 [EDGEWORTHIN]	–	–	–
–	–	BLEOMYCIN SULFATE	–	–	35.5
